Values quoted from earlier work in patent US6380174B1, “Slime-removing composition for paper manufacture and method of controlling slime using the same” (SK Corporation, priority 1999, dated 2002).

System: slime-causing microorganisms

For N#CC(Br)(Br)C(N)=O [DBNPA, 2,2-dibromo-3-nitrilepropionamide], the “amount required for early sterilization” value (after 3 hours) is given as 50 ppm and the “amount necessary for sufficient sterilizing activity” value (after 24 hours) is given as 5 ppm.
